From patent US8765727B2, “Macrocyclic compounds and their use as kinase inhibitors” (Incyte Corporation, priority 2009, dated 2014)
Counter-ions that a name gives are not always drawn. Like-named read-outs stand apart in the source and are kept apart here.

Key:
Type in all cases: biochemical
[1] = target: human JAK2 (a.a. 828-1132) catalytic domain (Homo sapiens (Human), UniProt O60674); experiment: In vitro JAK kinase assay (HTRF), JAK2
Method: One or more compounds herein were tested for inhibitory activity of JAK targets according to the following in vitro assay described in Park et al., Analytical Biochemistry 1999, 269, 94-104. The catalytic domains of human JAK1 (a.a. 837-1142), JAK2 (a.a. 828-1132) and JAK3 (a.a. 781-1124) with an N-terminal His tag were expressed using baculovirus in insect cells and purified. The catalytic activity of JAK1, JAK2 or JAK3 was assayed by measuring the phosphorylation of a biotinylated peptide. The phosphorylated peptide was detected by homogenous time resolved fluorescence (HTRF). […] Binding to the Europium labeled antibody took place for 40 minutes and HTRF signal was measured on a Fusion plate reader (Perkin Elmer, Boston, Mass.).

TYK2 = TYK2 (Homo sapiens (Human), UniProt P29597); experiment: TYK2 assay (as described by Thompson et al.)
Sequence of TYK2 (P29597 whole entry, species assumed): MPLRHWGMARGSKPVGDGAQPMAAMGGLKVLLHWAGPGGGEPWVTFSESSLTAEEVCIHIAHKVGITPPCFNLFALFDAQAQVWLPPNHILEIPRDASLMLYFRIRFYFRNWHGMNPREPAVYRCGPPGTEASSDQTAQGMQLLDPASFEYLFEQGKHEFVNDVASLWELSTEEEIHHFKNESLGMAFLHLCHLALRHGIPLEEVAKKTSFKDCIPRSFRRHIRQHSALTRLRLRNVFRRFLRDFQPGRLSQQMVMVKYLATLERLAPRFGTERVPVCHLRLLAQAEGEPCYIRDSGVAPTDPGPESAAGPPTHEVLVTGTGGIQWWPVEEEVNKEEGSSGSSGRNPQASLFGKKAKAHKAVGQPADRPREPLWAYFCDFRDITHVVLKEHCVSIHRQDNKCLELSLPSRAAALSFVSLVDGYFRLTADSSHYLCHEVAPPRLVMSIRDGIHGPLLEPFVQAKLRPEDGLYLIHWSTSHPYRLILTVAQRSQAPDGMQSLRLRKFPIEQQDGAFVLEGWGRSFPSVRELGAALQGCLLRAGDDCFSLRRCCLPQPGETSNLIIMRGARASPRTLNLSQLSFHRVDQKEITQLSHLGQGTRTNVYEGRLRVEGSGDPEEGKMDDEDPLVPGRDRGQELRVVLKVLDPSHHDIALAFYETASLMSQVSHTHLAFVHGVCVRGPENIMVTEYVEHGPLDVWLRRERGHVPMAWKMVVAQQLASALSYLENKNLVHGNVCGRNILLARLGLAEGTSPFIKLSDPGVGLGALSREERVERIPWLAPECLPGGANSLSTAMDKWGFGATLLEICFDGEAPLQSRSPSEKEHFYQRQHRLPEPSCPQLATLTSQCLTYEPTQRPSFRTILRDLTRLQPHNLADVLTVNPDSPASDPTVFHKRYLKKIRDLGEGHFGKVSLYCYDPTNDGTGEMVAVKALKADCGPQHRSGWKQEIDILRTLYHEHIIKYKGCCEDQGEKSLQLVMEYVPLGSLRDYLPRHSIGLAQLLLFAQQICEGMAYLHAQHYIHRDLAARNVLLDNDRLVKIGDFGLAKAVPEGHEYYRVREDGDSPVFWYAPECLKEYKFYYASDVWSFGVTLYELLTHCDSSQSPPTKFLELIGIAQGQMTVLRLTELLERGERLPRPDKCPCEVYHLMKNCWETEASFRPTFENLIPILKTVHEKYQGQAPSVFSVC
From the text: The invention will be described in greater detail by way of specific examples. The following examples are offered for illustrative purposes, and are not intended to limit the invention in any manner. Those of skill in the art will readily recognize a variety of non-critical parameters which can be changed or modified to yield essentially the same results. In some instances where the compounds of the examples were isolated by preparative HPLC in the presence of trifluoroacetic acid (TFA) or other acid, the compound may have been obtained as the corresponding salt. […] Certain compounds described in Tables 1 and in the Example section were tested for inhibitory activity of JAK/ALK targets according to assays such as those described herein or those known in the art [e.g., ALK assays described in WO 04/079326; and TYK2 assays described by James E. Thompson et. al, “Photochemical preparation of a pyridone containing tetracycle: A JAK protein kinase inhibitor,” Bioorganic & Medicinal Chemistry Letters, Volume 12, Issue 8, 22 Apr. 2002, Pages 1219-1223]. […] Some exemplary data of the compounds of the invention are shown in Table 1 in the experimental section.

[2] = target: human JAK1 (a.a. 837-1142) catalytic domain (Homo sapiens, UniProt P23458); experiment: In vitro JAK kinase assay (HTRF), JAK1; settings: 90 μM ATP, 500 nM peptide, room temperature 1 hr
Method: (§1) One or more compounds herein were tested for inhibitory activity of JAK targets according to the following in vitro assay described in Park et al., Analytical Biochemistry 1999, 269, 94-104. The catalytic domains of human JAK1 (a.a. 837-1142), JAK2 (a.a. 828-1132) and JAK3 (a.a. 781-1124) with an N-terminal His tag were expressed using baculovirus in insect cells and purified. The catalytic activity of JAK1, JAK2 or JAK3 was assayed by measuring the phosphorylation of a biotinylated peptide. The phosphorylated peptide was detected by homogenous time resolved fluorescence (HTRF). […] The ATP concentration in the reactions was 90 μM for JAK1, 30 μM for JAK2 and 3 μM for JAK3. Reactions were carried out at room temperature for 1 hr and then stopped with 20 μL 45 mM EDTA, 300 nM SA-APC, 6 nM Eu-Py20 in assay buffer (Perkin Elmer, Boston, Mass.). Binding to the Europium labeled antibody took place for 40 minutes and HTRF signal was measured on a Fusion plate reader (Perkin Elmer, Boston, Mass.).

[3] = target: Recombinant Human Anaplastic Lymphoma Kinase (Homo sapiens (Human), UniProt Q9UM73); experiment: ALK HTRF kinase assay; settings: 90 μM ATP, 0.25 nM enzyme, 2 hours at 25° C.
Sequence of Recombinant Human Anaplastic Lymphoma Kinase (Q9UM73 19-1620): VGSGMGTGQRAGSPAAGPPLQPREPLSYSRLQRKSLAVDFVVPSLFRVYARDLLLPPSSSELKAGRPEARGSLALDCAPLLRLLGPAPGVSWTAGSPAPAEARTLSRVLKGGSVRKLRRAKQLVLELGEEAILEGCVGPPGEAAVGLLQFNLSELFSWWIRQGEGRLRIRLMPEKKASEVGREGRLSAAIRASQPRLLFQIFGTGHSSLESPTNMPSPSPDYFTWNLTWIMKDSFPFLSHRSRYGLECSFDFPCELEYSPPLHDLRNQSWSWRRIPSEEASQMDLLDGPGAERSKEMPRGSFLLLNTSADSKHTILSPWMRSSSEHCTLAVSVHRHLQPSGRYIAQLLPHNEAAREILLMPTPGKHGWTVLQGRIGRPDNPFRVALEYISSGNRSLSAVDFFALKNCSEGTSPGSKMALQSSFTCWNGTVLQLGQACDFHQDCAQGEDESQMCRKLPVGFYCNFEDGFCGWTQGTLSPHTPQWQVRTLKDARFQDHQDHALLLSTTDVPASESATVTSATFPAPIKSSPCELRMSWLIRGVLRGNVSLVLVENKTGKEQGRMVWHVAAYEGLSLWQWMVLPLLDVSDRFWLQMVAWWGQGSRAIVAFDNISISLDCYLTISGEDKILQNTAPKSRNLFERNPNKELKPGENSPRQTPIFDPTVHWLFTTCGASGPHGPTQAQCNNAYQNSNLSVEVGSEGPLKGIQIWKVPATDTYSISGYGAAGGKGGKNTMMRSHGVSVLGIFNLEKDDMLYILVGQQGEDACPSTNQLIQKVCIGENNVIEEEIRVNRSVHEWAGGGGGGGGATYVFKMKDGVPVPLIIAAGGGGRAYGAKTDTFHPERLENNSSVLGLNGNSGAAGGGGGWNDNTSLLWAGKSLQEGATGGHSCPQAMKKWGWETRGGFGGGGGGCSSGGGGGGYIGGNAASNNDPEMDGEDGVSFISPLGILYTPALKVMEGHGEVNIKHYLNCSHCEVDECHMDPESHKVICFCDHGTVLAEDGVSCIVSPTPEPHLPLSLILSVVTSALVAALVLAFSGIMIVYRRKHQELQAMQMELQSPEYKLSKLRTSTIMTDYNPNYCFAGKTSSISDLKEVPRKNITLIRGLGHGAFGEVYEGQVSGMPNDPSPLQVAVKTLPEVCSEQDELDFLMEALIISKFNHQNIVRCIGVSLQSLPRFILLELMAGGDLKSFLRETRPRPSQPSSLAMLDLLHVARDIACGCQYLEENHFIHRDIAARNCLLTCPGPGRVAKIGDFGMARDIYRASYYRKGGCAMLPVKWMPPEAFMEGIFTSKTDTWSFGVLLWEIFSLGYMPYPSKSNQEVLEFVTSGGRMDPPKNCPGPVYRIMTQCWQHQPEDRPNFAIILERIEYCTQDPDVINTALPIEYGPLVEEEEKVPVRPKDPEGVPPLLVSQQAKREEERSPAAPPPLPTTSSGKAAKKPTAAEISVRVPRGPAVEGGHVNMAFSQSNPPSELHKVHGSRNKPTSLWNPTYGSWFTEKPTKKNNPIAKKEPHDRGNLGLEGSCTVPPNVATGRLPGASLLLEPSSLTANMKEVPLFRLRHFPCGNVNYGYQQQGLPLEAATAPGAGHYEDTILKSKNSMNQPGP
Method: Materials: Recombinant Human Anaplastic Lymphoma Kinase was purchased from Invitrogen, Carlsbad, Calif. Peptide substrate (Biotin-[…]-amide) was custom synthesized at EZBiolab, Westfield, Ind. Streptavidin conjugated SureLight-Allophycocyania and LANCE Eu-W1024 labeled anti-phosphotyrosine antibody were from Perkin-Elmer, Boston, Mass. Microplates were from Corning Inc., Acton, Mass. All other reagents were from Sigma, St. Louis, Mo.
HTRF kinase assay: 40 μL reactions were run in black 384 well polystyrene plates in assay buffer (50 mM Tris, pH 7.8, 100 mM NaCI, 0.1 mg/mL BSA, 5 mM DTT), containing 0.5 μM Biotinylated peptide substrate, 10 mM MgCl2, 90 μM ATP, and 0.25 nM enzyme for 2 hours at 25° C. Reactions were stopped by addition of 20 μL assay buffer supplemented with an additional 50 mM NaCl, 0.4 mg/mL BSA, 45 mM EDTA, 4.5 nM LANCE Eu-W1024 labeled anti-phosphotyrosine antibody and 200 nM streptavidin conjugated SureLight-allophycocyanin. Plates were read in Fusion α-FP instrument (Perkin-Elmer). The concentrations needed to reach 50% inhibition, the IC50 value, were determined by fitting the assay signal to the following equation using Graphpad Prizm. Signal=Bottom+(Top−Bottom)/(1+10^((Log(IC50)−Log [I])*Hill Slope) Bottom and Top refer to the post and pre-transition baselines, respectively.

[4] = target: human JAK3 (a.a. 781-1124) catalytic domain (Homo sapiens (Human), UniProt P52333); experiment: In vitro JAK kinase assay (HTRF), JAK3; settings: 3 μM ATP, 500 nM peptide, room temperature 1 hr
Sequence of human JAK3 (a.a. 781-1124) catalytic domain (P52333 781-1124): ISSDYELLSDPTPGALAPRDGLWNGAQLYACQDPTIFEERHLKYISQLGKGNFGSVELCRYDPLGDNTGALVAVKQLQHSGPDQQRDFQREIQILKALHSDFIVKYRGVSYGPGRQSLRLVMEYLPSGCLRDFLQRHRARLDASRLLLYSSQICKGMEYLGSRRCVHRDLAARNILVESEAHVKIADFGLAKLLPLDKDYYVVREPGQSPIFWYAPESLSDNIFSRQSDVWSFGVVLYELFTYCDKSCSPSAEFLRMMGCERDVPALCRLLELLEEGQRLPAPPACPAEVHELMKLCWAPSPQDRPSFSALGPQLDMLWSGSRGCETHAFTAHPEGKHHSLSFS
Method: as §1

[5] = 30 μM ATP, 500 nM peptide, room temperature 1 hr

Sequence of human JAK2 (a.a. 828-1132) catalytic domain (O60674 828-1132): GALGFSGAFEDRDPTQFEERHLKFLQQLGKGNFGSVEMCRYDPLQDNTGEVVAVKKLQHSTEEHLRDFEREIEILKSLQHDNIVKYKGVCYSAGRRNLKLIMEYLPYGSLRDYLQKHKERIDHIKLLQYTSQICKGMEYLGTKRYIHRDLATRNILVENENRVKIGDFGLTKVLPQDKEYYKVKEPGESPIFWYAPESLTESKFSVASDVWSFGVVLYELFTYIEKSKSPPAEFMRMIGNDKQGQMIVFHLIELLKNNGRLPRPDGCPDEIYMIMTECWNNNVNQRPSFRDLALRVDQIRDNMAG

Row | SMILES | IC50 [1] | IC50 (TYK2) | IC50 [2] | IC50 [3] | IC50 [4] | IC50 [1, 5]
1 | Clc1cnc2nc1NCc1cccc(c1)OCc1cccc(c1)N2 [Example 1, 6-Chloro-15-oxa-2,4,8,23-tetraazatetracyclo[15.3.1.1(3,7).1(10,14)]tricosa-1(21),3(23),4,6,10(22),11,13,17,19-nonaene trifluoroacetate] | 0.049 µM | 0.4 µM | 0.051 µM | > 1 µM | 0.017 µM | –
2 | Clc1cnc2nc1NCc1cccc(c1)OCCc1cccc(c1)N2 [Example 2, 6-Chloro-15-oxa-2,4,8,24-tetraazatetracyclo[16.3.1.1(3,7).1(10,14)]tetracosa-1(22),3(24),4,6,10(23),11,13,18,20-nonaene trifluoroacetate] | – | 0.035 µM | 0.013 µM | 1.53 µM | 0.0092 µM | 0.01 µM
3 | O=S1(=O)Nc2cccc(c2)CNc2nc(ncc2Cl)Nc2cccc1c2 [Example 3, 6-Chloro-16-thia-2,4,8,15,23-pentaazatetracyclo[15.3.1.1(3,7).1(10,14)]tricosa-1(21),3(23),4,6,10(22),11,13,17,19-nonaene 16,16-dioxide trifluoroacetate] | – | 0.83 µM | 0.3 µM | > 10 µM | 0.325 µM | –
4 | O=C1Nc2cccc(c2)CNc2nc(ncc2Cl)Nc2cccc1c2 [Example 4, 6-Chloro-2,4,8,15,23-pentaazatetracyclo[15.3.1.1(3,7).1(10,14)]tricosa-1(21),3(23),4,6,10(22),11,13,17,19-nonaen-16-one trifluoroacetate] | – | > 1 µM | 0.096 µM | > 10 µM | 0.021 µM | 0.104 µM
5 | Clc1cnc2nc1NCc1cccc(c1)OCCCc1cccc(c1)N2 [Example 5, 6-Chloro-15-oxa-2,4,8,25-tetraazatetracyclo[17.3.1.1(3,7).1(10,14)]pentacosa-1(23),3(25),4,6,10(24),11,13,19,21-nonaene trifluoroacetate] | 0.0019 µM | 0.025 µM | 0.0042 µM | 0.706 µM | 0.0024 µM | –
6 | C[C@H]1Nc2nc(ncc2Cl)Nc2cccc(c2)COc2cccc1c2 [Example 6, (9R)-6-Chloro-9-methyl-15-oxa-2,4,8,23-tetraazatetracyclo[15.3.1.1(3,7).1(10,14)]tricosa-1(21),3(23),4,6,10(22),11,13,17,19-nonaene trifluoroacetate] | – | > 1 µM | 0.346 µM | > 10 µM | 0.14 µM | 0.35 µM
7 | Clc1cnc2nc1NCc1cccc(c1)OCCOc1cccc(c1)N2 [Example 7, 6-Chloro-15,18-dioxa-2,4,8,25-tetraazatetracyclo[17.3.1.1(3,7).1(10,14)]pentacosa-1(23),3(25),4,6,10(24),11,13,19,21-nonaene trifluoroacetate] | – | 0.043 µM | 0.016 µM | 2.05 µM | 0.0064 µM | 0.0083 µM
8 | Clc1cnc2nc1NCCc1cccc(c1)OCc1cccc(c1)N2 [Example 8, 19-Chloro-9-oxa-2,17,21,22-tetraazatetracyclo[16.3.1.1(3,7).1(10,14)]tetracosa-1(22),3(24),4,6,10(23),11,13,18,20-nonaene] | – | 0.438 µM | 0.6 µM | > 10 µM | 0.3 µM | –
9 | Clc1cnc2nc1NCCc1cccc(c1)OCCc1cccc(c1)N2 [Example 9, 6-Chloro-16-oxa-2,4,8,25-tetraazatetracyclo[17.3.1.1(3,7).1(11,15)]pentacosa-1(23),3(25),4,6,11(24),12,14,19,21-nonaene] | – | 0.053 µM | 0.028 µM | 1.23 µM | 0.055 µM | 0.023 µM
10 | Clc1cnc2nc1NCCCc1cccc(c1)OCc1cccc(c1)N2 [Example 10, 20-Chloro-9-oxa-2,18,22,23-tetraazatetracyclo[17.3.1.1(3,7).1(10,14)]pentacosa-1(23),3(25),4,6,10(24),11,13,19,21-nonaene] | – | 0.237 µM | 0.122 µM | > 1 µM | 0.18 µM | 0.117 µM
11 | C[C@@H]1Nc2nc(ncc2Cl)Nc2cccc(c2)COc2cccc1c2 [Example 11, (9S)-6-Chloro-9-methyl-15-oxa-2,4,8,23-tetraazatetracyclo[15.3.1.1(3,7).1(10,14)]tricosa-1(21),3(23),4,6,10(22),11,13,17,19-nonaene trifluoroacetate] | – | > 1 µM | > 1 µM | > 10 µM | > 1 µM | > 1 µM
12 | Clc1cnc2nc1NCCc1cccc(c1)OCCCc1cccc(c1)N2 [Example 12, 6-Chloro-16-oxa-2,4,8,26-tetraazatetracyclo[18.3.1.1(3,7).1(11,15)]hexacosa-1(24),3(26),4,6,11(25),12,14,20,22-nonaene] | – | 0.4 µM | 0.3 µM | > 10 µM | 0.315 µM | –
13 | Clc1cnc2nc1NCCCc1cccc(c1)OCCc1cccc(c1)N2 [Example 13, 21-Chloro-10-oxa-2,19,23,24-tetraazatetracyclo[18.3.1.1(3,7).1(11,15)]hexacosa-1(24),3(26),4,6,11(25),12,14,20,22-nonaene] | – | 0.106 µM | 0.032 µM | > 10 µM | 0.062 µM | 0.025 µM
14 | Clc1cnc2nc1NCc1cc(ccc1Br)OCCCc1cccc(c1)N2 [Example 14, 11-Bromo-6-chloro-15-oxa-2,4,8,25-tetraazatetracyclo[17.3.1.1(3,7).1(10,14)]pentacosa-1(23),3(25),4,6,10(24),11,13,19,21-nonaene] | – | 0.3 µM | 0.1 µM | 8.2 µM | 0.057 µM | 0.091 µM
15 | Clc1cnc2nc1NCc1cc(ccc1-c1ccccc1)OCCCc1cccc(c1)N2 [Example 15, 6-Chloro-11-phenyl-15-oxa-2,4,8,25-tetraazatetracyclo[17.3.1.1(3,7).1(10,14)]pentacosa-1(23),3(25),4,6,10(24),11,13,19,21-nonaene] | – | 0.4 µM | 0.081 µM | > 1 µM | 0.031 µM | 0.041 µM
16 | Clc1cnc2nc1NCc1cc(Br)cc(c1)OCCCc1cccc(c1)N2 [Example 16, 12-Bromo-6-chloro-15-oxa-2,4,8,25-tetraazatetracyclo[17.3.1.1(3,7).1(10,14)]pentacosa-1(23),3(25),4,6,10(24),11,13,19,21-nonaene] | – | 0.149 µM | – | 0.28 µM | – | 0.005 µM
